Columns and labels:
[1] = system: retina; assay: Ex-vivo staining of porcine eyes, dye extraction and HPLC quantification in retina near the peeled area; conditions: ex-vivo swine eyes; for increase in the dyes content in the retina with respect to the staining formulation according to the invention: p=0.004
Procedure: (§1) To this end, a staining composition according to the invention was prepared having the following formulation (% by weight). • dye: Benzyl-BBG according to Example 4: 0.025% • Sodium phosphate monobasic dihydrate: 0.368% (SIGMA ALDRICH) • Sodium phosphate bibasic dihydrate: 0.711% (SIGMA ALDRICH) • Sodium chloride: 0.400% (SIGMA ALDRICH) • water for injectables: up to 100% (FRESENIUS KABI ITALIA S.R.L.).
(§2) This staining composition was compared with two staining composition available on the market, more specifically: • a staining composition including BBG and marketed under the trade name of ILM-BLUE® (D.O.R.C. Dutch Ophthalmic Research Center (International) B.V.), and with • a staining composition including methyl-BBG according to WO 2016/189475 marketed under the trade name of VIEW-ILM (AL.CHI.MI.A. S.r.l.).
(§3) Porcine eyes were obtained from a slaughterhouse and were prepared within 5 hours after death, the eyes were placed on a plastic holder, and a 360-degree limbal incision was performed for corneal removal, followed by total iris removal. Whole vitreous was gently extracted.
Next, 1 ml of BSS was placed in the eye and 40 µl of dye formulation was gently placed in the eye, by a Gilson pipet, for 30 seconds; then the BSS along the dye were removed and the eye rinsed with BSS. […]
Retina and ILM tissue samples obtained as described above were weighed and homogenized in 250-500 µl of methanol. […] The residues were reconstituted in 100 µl of mobile phase by vortexing for 120 s, filtered again on 0.45 µm filters and, finally, 20 µl aliquots were injected onto the chromatographic apparatus (each sample was analyzed in triplicate). […]
(§4) Quantification of the dye molecule was performed using 6-10 points external regression curves performed at 613 nm. […]
(§5) In the data analysis, statistical differences of ex-vivo data are determined using analysis of variance (ANOVA) followed by the Bonferroni-Dunn post hoc pairwise comparison procedure. […]

[2] = system: proteins and protein chains; assay: SDS-PAGE protein staining, whole set of molecular weight standards (spots versus background); conditions: result in words; dye 0.05% by weight/volume
Procedure: The dye molecules according to the invention were tested in order to show their higher selectivity for proteins and protein chains with respect to BBG. For this purpose, SDS-PAGE electrophoresis tests were performed in order to compare the Benzyl-BBG according to the invention (Example 4) and the Ethyl-BBG according to Example 2 with a commercially available grade of BBG (Sigma-Aldrich 90% purity).
A set of molecular weight standards was created by mixing different amounts of known proteins (E.coli beta-galactosidase - 116.3 kDa, bovine serum albumin - 66.5 kDa, chicken ovalbumin - 42.7 kDa and equine cytochrome C - 12,384 Da) in such a way as to obtain bands of similar intensity. In order to do so, an inverse relationship between amount (as nanograms of protein) and molecular weight of any protein was initially achieved, and small adjustments were experimentally made. Polyacrylamide gel electrophoresis was done in 9% precast gels (Bio-Rad) at 20V for 60-90 minutes in denaturing conditions; standards were loaded in triplicate on separate lanes. […]

[3] = system: ILM; assay: Ex-vivo staining of porcine eyes, dye extraction and HPLC quantification in peeled ILM; conditions: ex-vivo swine eyes; for amounts of the dye molecule in the ILM (mean): 40 µl dye formulation in 1 ml BSS for 30 seconds, mean of 6, BBG 0.025% (ILM-BLUE), methyl-BBG 0.03% (VIEW-ILM), Benzyl-BBG 0.025%
Procedure: as §1, §2, §3
Next, 1 ml of BSS was placed in the eye and 40 µl of dye formulation was gently placed in the eye, by a Gilson pipet, for 30 seconds; then the BSS along the dye were removed and the eye rinsed with BSS.
The peeling of ILM was carried out by forceps and the tissue placed in an Eppendorf tube, the rest of retina near the area of ILM peeling was collected and placed in another Eppendorf tube.
The average amount of ILM tissue was of about 2 mg, whereas the average amount of retina tissue was of about 20 mg.
All tissues (ILM and retina) were stored at -20°C before HPLC analysis.
Retina and ILM tissue samples obtained as described above were weighed and homogenized in 250-500 µl of methanol. The homogenates were then transferred in an Eppendorf tube, ultrasonically extracted using a Branson Sonifier, centrifuged at 1,000 x g for 10 min and filtered on 0.45 µm syringe filters. The filtrates were transferred into labeled, clean test tubes and evaporated to dryness under a stream of nitrogen. The residues were reconstituted in 100 µl of mobile phase by vortexing for 120 s, filtered again on 0.45 µm filters and, finally, 20 µl aliquots were injected onto the chromatographic apparatus (each sample was analyzed in triplicate). […]
as §4, §5

[4] = cited from earlier work

## CCOc1ccc(Nc2ccc(C(=C3C=CC(=[N+](CC)Cc4cccc(S(=O)(=O)[O-])c4)C=C3C)c3ccc(N(CC)Cc4cccc(S(=O)(=O)O)c4)cc3C)cc2)cc1 [BBG, Coomassie Brilliant Blue G-250]
[1]
  increase in the dyes content in the retina with respect to the staining formulation according to the invention: 20.1 fold

## CCOc1ccc(N(Cc2ccccc2)c2ccc(C(=C3C=CC(=[N+](CC)Cc4cccc(S(=O)(=O)[O-])c4)C=C3C)c3ccc(N(CC)Cc4cccc(S(=O)(=O)O)c4)cc3C)cc2)cc1 [Benzyl-BBG]
[2]
  difference between the spot intensity of Benzyl-BBG and Ethyl-BBG: No significant difference
[1]; 40 µl dye formulation in 1 ml BSS for 30 seconds, mean of 6, BBG 0.025% (ILM-BLUE), methyl-BBG 0.03% (VIEW-ILM), Benzyl-BBG 0.025%
  amounts of the dye molecule in the retina (mean): 19.69 ng/mg tissue
[3]
  amounts of the dye molecule in the ILM (mean): 214.88 ng/mg tissue
[3]; listed as benzyl-BBG
  amounts of the dye molecule in the ILM (mean): about 215 ng/mg tissue
[3]; p = 0,002
  increase of dye content in ILM with respect to the known formulation including BBG: 2.9 fold
[3]; p<0,001
  increase of dye content in ILM with respect to the known formulation including methyl-BBG: 6.0 fold

## c1ccc(CNCc2ccccc2)cc1 [dibenzylamine]
[4]
  pKa: 8.52

## CCOc1ccc(N(C)c2ccc(C(=C3C=CC(=[N+](CC)Cc4cccc(S(=O)(=O)[O-])c4)C=C3C)c3ccc(N(CC)Cc4cccc(S(=O)(=O)O)c4)cc3C)cc2)cc1 [methyl-BBG]
[1]
  increase in the dyes content in the retina with respect to the staining formulation according to the invention: 10.9 fold

Source: patent EP3692101B1, “BRILLIANT BLUE (BBG) DYE DERIVATIVES AND STAINING COMPOSITIONS COMPRISING THE SAME FOR SELECTIVELY STAINING BIOLOGICAL SUBSTRATES” (priority 2017, dated 2019)
